Assay results: patent US9469878B2, “Methods of treating cancer comprising targeting NQO1” (The Board of Regents of the University of Texas System, priority 2010, dated 2016)

Columns and labels:
[1] = system: MDA-MB-231 cells expressing NQO1 (231+); test: Long term survival assay; type: cell-based, human; settings: 231-NQ+ cells
Description: Cells were cultured and treated as described above.
Data were expressed as relative survival (treated/control×100%).

NQO1 [2] = target: NQO1 (Homo sapiens, UniProt P15559); test: NQO1 enzyme assays using β-lapachone or the standard menadione substrates; type: biochemical; parameters: S9 Supernatants were prepared from cells in mid-log to late log phase growth; endogenous in cells; host or cells: cancer cell lines, mostly from a non-small cell lung cancer panel; S9 supernatants; settings: menadione as substrate
NQO1 (Homo sapiens, UniProt P15559), sequence (P15559 whole entry): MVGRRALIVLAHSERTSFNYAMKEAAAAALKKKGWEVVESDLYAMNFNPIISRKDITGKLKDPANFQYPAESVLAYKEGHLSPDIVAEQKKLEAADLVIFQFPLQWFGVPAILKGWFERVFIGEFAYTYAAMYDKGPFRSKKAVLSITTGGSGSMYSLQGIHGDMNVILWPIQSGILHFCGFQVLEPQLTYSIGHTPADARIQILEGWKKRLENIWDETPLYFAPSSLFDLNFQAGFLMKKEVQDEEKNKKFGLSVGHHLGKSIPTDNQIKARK
Description: (§1) S9 Supernatants were prepared from cells in mid-log to late log phase growth. […] The cell suspensions were sonicated on ice four times, using 10-s pulses, and then centrifuged at 14,000×g for 20 min. The S9 supernatants were aliquoted into microcentrifuge tubes and stored at −80° C. until used. A 1× protease inhibitor cocktail was added to prevent enzyme activity degradation. […] Menadione was used as the electron acceptor. NADH was used as the electron donor.
(§2) NQO1 activity was measured using NADH (200 μM) as the immediate electron donor and menadione (10 μM) as the intermediate electron acceptor. […] Biochem. Biophys. […] NADH: cytochrome b5 reductase was measured using NADH (200 μM) as the electron donor, and […] was measured using NADPH (200 μM) as electron donor (45) in a Beckman DU 640 spectrophotometer (Beckman Coulter, Fullerton, Calif.). Reactions were carried out at 37° C. and were initiated by the addition of S9 supernatants. Varying amounts of supernatants, from 10 to 40 μL, were used to ensure linearity of rates with protein concentration. […] Results shown are the average enzyme activity for three separate cell extractions±S.D. or both values from duplicate experiments.
(§3) Cell lines, mostly from a 5-panel nonsmall cell lung cancer panel from the UT Southwestern SPORE, were assessed for NQO1 polymorphism status and then monitored for NQO1 enzyme assays using β-lapachone or the standard menadione substrates. […] NQO1*2/*2 and *3/*3 polymorphisms were detected from NQO1 *1/*1 wild-type sequences by PCR-RFLP. Genomic DNA was extracted from the cells using Qiagen spin columns. Using previously described oligonucleotide primers, PCR products underwent gel electrophoresis. Final genotyping was determined based on the size and pattern of separated bands diagnostic for *1/*1 (wild-type), or polymorphic *2/*2 or *3/*3 NQO1 polymorphisms.

NQO1 [3] = target: T1, NQO1 (Homo sapiens, UniProt P15559, R139W); test: as above; type: biochemical; settings: menadione as substrate
T1 construct: S9 Supernatants were prepared from cells in mid-log to late log phase growth; endogenous in cells; host or cells: cancer cell lines, mostly from a non-small cell lung cancer panel (e.g. Calu-3); S9 supernatants
T1 sequence (P15559 whole entry R139W): as the sequence (P15559 whole entry) above, with R139W counted along it
Description: as §1, §2, §3

NQO1 [4] = target: T2, NQO1 (Homo sapiens, UniProt P15559, P187S); test: as above; type: biochemical; settings: single value given
T2 construct: S9 Supernatants were prepared from cells in mid-log to late log phase growth; endogenous in cells; host or cells: cancer cell lines, mostly from a non-small cell lung cancer panel; S9 supernatants
T2 sequence (P15559 whole entry P187S): as the sequence (P15559 whole entry) above, with P187S counted along it
Description: as §1, §2, §3

NQO1 [5] = test: as above; type: biochemical, human; settings: menadione as substrate
Description: as §1, §2, §3

PARP1 in MCF-7 cells = test: Western-blot analyses for PARP1 cleavage; type: cell-based, human; settings: pre-treatment, 4 μM β-lap 2 h pulse
Description: For Western-blot analyses for PARP1 cleavage-MCF-7 cells seeded in 10 cm dishes were treated with 4 μM β-lap in the absence or presence of 1000 U of catalase dissolved in hepes buffer pH 7.4 for 2 h. Cells were then given fresh media and incubated at 37° C. for 24 h. Cells were then harvested in PARP1 lysis buffer. Lysates were resolved in 10% SDS-PAGE and immunoblotted onto PVDF membranes and probed with a monoclonal PARP1 antibody (SC-8007). […] Relative PAR levels were calculated by densitometric analyses by NIH ImageJ using PARP1 loading controls. Measurements were normalized to t=0 levels. Western blots shown are representative of separate experiments performed at least three times.

PC-3 cells = test: Intracellular NAD+ and ATP levels; type: cell-based, human; settings: pre- and co-treatment, 2 or 3 Gy+3 μM β-lap
Description: ATP levels were analyzed from whole-cell extracts using CellTiter-Glo Luminescent Cell Viability Assays (Promega, Madison, Wis.) following the manufacture's instructions. Data were graphed as means±SE from at least three independent experiments in triplicates.

[6] = system: PARP1 in A549 NSCLC cells; test: PAR formation, Western blot; type: cell-based, human; settings: 25 mM, β-lap-treated A549 NSCLC cells
Description: Whole-cell extracts were prepared, proteins separated by SDSPAGE, and Western blots developed using SuperSignal® West Pico Chemiluminescent substrate (Thermo Scientific, Rockford, Ill.), and exposed using Autoradiography Film (Denville Scientific Inc., Metuchen, N.J.). An anti-human NQO1 antibody was kindly provided to us by Dr. David Ross (University of Colorado Health Science Center, Denver, Colo.) and used at a 1:5000 dilution overnight at 4° C.

[7] = system: Human (shown) or mouse rbs; test: Hemolysis of red blood cells; type: cell-based; settings: rbs incubated with HPβCD alone, HPβCD-β-lap, or β-lap alone in DMSO
Description: Human (shown) or mouse rbs were incubated with HPβCD alone or HPβCD-β-lap, or β-lap alone in DMSO.

CC(=O)N[C@@H](CS)C(=O)O [NAC, N-acetyl-L-cysteine]
Effect on lethal effects of β-lap ([1]; pre- and co-treatments): protected against the lethal effects of 2 μM β-lap, but not 3 μM

CC1=CC(=O)c2ccccc2C1=O [Men, menadione]
NQO1 activity, Men (NQO1 [2]; H322 *1/*1): 1234 +/− 40; ND nMoles/min/μg
NQO1 activity, Men (NQO1 [2]; H1648 *1/*1): 1370 +/− 17; ND nMoles/min/μg
NQO1 activity, Men (NQO1 [2]; H1993 *1/*1): 1170 ± 30 nmol/min/µg
NQO1 activity, Men (NQO1 [2]; H2073 *1/*1): 1340 +/− 20; ND nMoles/min/μg
NQO1 activity, Men (NQO1 [3]; Calu-3/NSCLC *3/*3): 48 ± 3 nmol/min/µg
NQO1 activity, Men (NQO1 [3]; H2009/NSCLC *3/*3): 4.0 ± 1 nmol/min/µg
NQO1 activity, Men (NQO1 [3]; HCC1171/NSCLC *3/*3): 98 ± 17 nmol/min/µg
NQO1 activity, Men (NQO1 [3]; T47D/BreastCancer *3/*3): 32 ± 2 nmol/min/µg
NQO1 activity, Men (NQO1 [4]; H596/NSCLC *2/*2): <1 ± 0.01 nmol/min/µg
NQO1 activity, Men (NQO1 [4]; H2882/NSCLC *2/*2): <1 ± 0.01 nmol/min/µg
NQO1 activity, Men (NQO1 [4]; HCC366/NSCLC *2/*2): <1 ± 0.01 nmol/min/µg
NQO1 activity, Men (NQO1 [4]; MDA-MB-231/Breast *2/*2): 1 ± 0.05 nmol/min/µg
NQO1 activity, Men (NQO1 [4]; MDA-MB-468/Breast *2/*2): <1 ± 0.01 nmol/min/µg
NQO1 activity, Men (NQO1 [5]; H292 *1/*2): 169 +/− 17; ND nMoles/min/μg
NQO1 activity, Men (NQO1 [5]; HCC44 *1/*2): 148 ± 14 nmol/min/µg

CC(=O)OCOC(=O)CN(CC(=O)OCOC(C)=O)c1ccccc1OCCOc1ccccc1N(CC(=O)OCOC(C)=O)CC(=O)OCOC(C)=O [BAPTA-AM]
Effect on β-lap-mediated proteolysis of PARP1 and lethality (PARP1 in MCF-7 cells): prevented

O=C1NCCc2c(OCCCCN3CCCCC3)cccc21 [DPQ, 3,4-dihydro-5[4-(1-piperindinyl)butoxy]-1(2H)-isoquinoline]
Effect on synergistic losses of ATP (PC-3 cells): prevented

NC(=O)c1cccc(N)c1 [3-aminobenzamide]
Effect on PAR formation [6]: spares and delays PAR formation

Catalase
Catalase amount that significantly protected cells from the lethal effects of β-lap ([1]; exogenous catalase): ≥ 500 units

Z-VAD
Effect on β-lap-mediated proteolysis of PARP1 and lethality (PARP1 in MCF-7 cells): ineffective

hydroxypropyl-β-cyclodextrin [HPβCD]
Hemolysis [7]: caused significant hemolyses
